Measurements from US20110281933A1, “METHODS AND COMPOSITIONS FOR THE MANAGEMENT OF CARDIOVASCULAR DISEASE WITH OLIGONUCLEOTIDES” (Saint Louis University, priority 2010, published 2011).

Columns and labels:
miR-33 [1] = assay: Silencing miR-33 rescues liver damage induced by simvastatin and cholate diet (Example 9); type: in vivo, mice
Excerpt: Samples were collected after 7 days on the diet, or when mice appeared moribund. […] (B) Percentage of body weight, compared to the initial mass of each animal. Data are shown as mean±SD. (C) Macroscopic appearance of livers. (D) Liver to total body mass ratios. […] (E) Appearance of plasma. […] (G) Relative expression of hepatic canalicular transporters (upper panel) and other genes involved in bile acid and sterol homeostasis (bottom panel).
(§1) RNA and protein analysis. RNA was isolated from cells with Trizol reagent, using a slight modification of the manufacturer's protocol to preserve miRNAs. Briefly, following homogenization in 2 mL of Trizol, […] of chloroform and […] if 2 mol/L sodium acetate pH 4.2 were added before the separation of the organic and aqueous phases. The latter was combined with […] of acid phenol:chloroform:[…], and centrifuged again. RNAs in the aqueous phase was then precipitated with 3 mL of ethanol overnight at 4° C. After centrifugation, the RNA pellet was resuspended in water and stored at −80° C. until use. Alternatively, RNAs were isolated using the mirVana miRNA Isolation Kit (Ambion). cDNAs were generated from 5 μg of DNase1-treated RNA using Superscript III and Random hexamers (Invitrogen). Real-time PCR was done with Sybr green reagent (Roche), using a LightCycler 480 real-time PCR detection system (Roche). Values were normalized to GAPDH and calculated using the comparative CT method. Protein levels were determined by Western blot, using 50 ug total liver protein extract, and a 1:1,000 dilution of anti-ABCA1 antibody (Novus Biologicals), following standard protocols.
Murine Studies. Male C57Bl/6J mice were obtained from Jackson Laboratories, and maintained in a 12 hour/12 hour light/dark cycle with unlimited access to chow and water. […] Blood was collected 5 days post-infusion, and total cholesterol and HDL-cholesterol were assayed enzymatically with the Cholesterol E and HDL-cholesterol E kits from Waco Chemicals. […] Tissues and bile were collected following overnight fasting. RCT experiments were performed as described 28. Briefly, mice were injected i.v. with oligonucleotides (5 mpk) twice for 2 weeks, and then injected i.p. with 1-1.5×10^6 [^3H]-cholesterol-loaded bone marrow-derived macrophages. Blood samples were collected at 6, 24 and 48 h after the injection of the cells. Liver, bile and the feces produced during the last 48 h were collected and flash-frozen until used. The amount of radiolabeled sterols was determined by scintillation. All studies involving mice were approved by the IACUC at Saint Louis University.
Similarly bile and plasma were extracted in the presence of internal standards for each lipid class. Id.
The inventor next tested whether silencing miR-33 could rescue mammals with statin induced ERIC or cholestasis. […] Finally, the inventor studied the mRNA levels of selected hepatic genes (FIG. 10G).

miR-33 [2] = assay: Bile secretion in vivo after anti-miR-33 (Example 6); parameters: species or system mice; settings: 5 mpk i.v.
Excerpt: (A) Pooled bile recovered from the gallbladder of mice (n=5) injected with scrambled or anti-miR-33 oligonucleotides (5 mpk, i.v.) for 2 consecutive days. Mice were then kept for 7 days and fasted overnight before sample collection. (B) Levels of phosphatidylcholine (PC), cholesterol (chol) and bile acids present in pooled bile. (C) Relative expression of hepatic canalicular transporters in mice (n=5) following silencing of miR-33. Data are shown as mean±SD. *P<0.05 (unpaired T-test).
as §1
(§2) Murine Studies. Male C57Bl/6J mice were obtained from Jackson Laboratories, and maintained in a 12 hour/12 hour light/dark cycle with unlimited access to chow and water. In examples 1-5, animals (n=6-8 per group) were infused with adenoviral vectors (2×10^9 pfu) via tail vein injection. Blood was collected 5 days post-infusion, and total cholesterol and HDL-cholesterol were assayed enzymatically with the Cholesterol E and HDL-cholesterol E kits from Waco Chemicals. In example 6-10 animals (8-10 week old, n=6 per group, unless noted otherwise) were infused via tail vein injection with adenoviral vectors (2×10^9 pfu) or antisense oligonucleotides (5 mpk, 2 consecutive days). Where indicated, mice were fed a 21% fat, 1% cholesterol, 0.5% cholate diet (Purina 5A8E). Tissues and bile were collected following overnight fasting. RCT experiments were performed as described 28. Briefly, mice were injected i.v. with oligonucleotides (5 mpk) twice for 2 weeks, and then injected i.p. with 1-1.5×10^6 [^3H]-cholesterol-loaded bone marrow-derived macrophages. Blood samples were collected at 6, 24 and 48 h after the injection of the cells. Liver, bile and the feces produced during the last 48 h were collected and flash-frozen until used. The amount of radiolabeled sterols was determined by scintillation. All studies involving mice were approved by the IACUC at Saint Louis University.
Anti-miR-33 increases bile secretion in vivo. In an effort to understand the in vivo physiological importance of miR-33, the inventor injected mice with (5 mpk) of locked nucleic acid (LNA) scrambled sequence or LNA anti-miR-33 oligonucleotides 5-[…]-3′ (SEQ ID NO: 8) in saline (0.9% NaCl) via tail vein injection, at 5 mg/Kg (mpk) body weight. Mice were then kept with unlimited access to water and regular chow for a week. The amount of bile collected from the gallbladders of fasted mice receiving anti-miR-33 oligonucleotides was almost double of that collected from control mice (FIG. 6A). […] Next, the inventor tested the expression of several hepatocyte canalicular transporters that are known to mediate bile secretion.

miR-33 [3] = assay: Reverse cholesterol transport with [3H]-cholesterol-loaded macrophages (Example 10); type: in vivo, C57BL/6 mice; settings: 5 mpk
Procedure: (A) Percentage of total injected dpm in the plasma of mice treated with scrambled or anti-miR-33 oligonucleotides (5 mpk, twice a week for 2 weeks), at 6, 24 at 48 h post-injection of [3H]-cholesterol-acLDL-loaded macrophages. *P<0.05 (unpaired T-test): **P<0.01 (unpaired T-test). (B) Percentage of total injected dpm in the liver of the same mice. (C) Percentage of total injected dpm in the be recovered from the gallbladder of the same mice. **P<0.01 (unpaired T-test). (D) Percentage of total injected dpm in the feces of the same mice. **P<0.01 (unpaired T-test).
as §2
ANTI-miR-33 Treatment Results In Increased Reverse Cholesterol Transport. Biliary secretion is an essential component of the reverse cholesterol transport (RCT) pathway (Nijstad at al., (2011) Gastroenterology 140, 1043-1051) by which extrahepatic cholesterol is shuttled to the liver, secreted into bile and excreted through feces (Khera and Rader, (2010) Curr Atheroscler Rep 12, 73-81; Rader et al., (2009) J Lipid Res 50 Suppl, S189-194; Wang et al., (2007) J Clin Invest 117, 2216-2224; Wang and Rader, (2007) J Biol Chem 280, 8742-8747). An additional, liver-independent ROT pathway has been proposed that removes circulating cholesterol through the intestine directly into feces (van der Veen et al., (2009) J Biol Chem 284, 19211-19219). The inventor reasoned that the changes in be secretion observed following manipulation of miR-33 levels will result in altered RCT. […] Analysis of the bile recovered from the gallbladder confirmed that bile secretion is increased after suppression of miR-33 expression. […] Finally, the recovery of labeled sterols in the feces increased ˜2-fold in these same mice, compared to control animals (FIG. 8D).

[4] = test system: C57BL/6 mice on 1% cholesterol, 0.5% cholate diet; assay: Simvastatin and cholate diet induced liver damage (Example 8); type: in vivo; settings: 50 mpk simvastatin vs saline
miR-33 [5] = assay: miR-33 silencing in vivo: hepatic ABCA1 and plasma HDL-cholesterol (Example 4); parameters: species or system C57BL/6 mice; settings: 5 mg/Kg/day for 3 consecutive days, vs scrambled
Procedure: as §1
Murine Studies. Male C57Bl/6J mice were obtained from Jackson Laboratories, and maintained in a 12 hour/12 hour light/dark cycle with unlimited access to chow and water. In examples 1-5, animals (n=6-8 per group) were infused with adenoviral vectors (2×10^9 pfu) via tail vein injection. […] In example 6-10 animals (8-10 week old, n=6 per group, unless noted otherwise) were infused via tail vein injection with adenoviral vectors (2×10^9 pfu) or antisense oligonucleotides (5 mpk, 2 consecutive days). […] The amount of radiolabeled sterols was determined by scintillation. […]
miR-33 modulation of physiological sterol homeostasis in vivo. To put these latter results in a physiological context, scrambled or anti-miR-33 oligonucleotides were injected into the tail veins of C57BL/6 mice (5 mg/Kg/day for 3 consecutive days), and plasma lipoprotein and cholesterol levels determined 12 days after the infusion.

[6] = 150 mpk simvastatin and cholate diet
[7] = mice that survived at the end of the experiment, vs scrambled

5′-TGCAACTACAATGCA-3′ (LNA modifications, further chemistry not given here; listed as Homo sapiens) [LNA anti-miR-33 oligonucleotide, locked nucleic acid antisense oligonucleotide targeted to both miR-33 and miR-33 preRNA]
survival (miR-33 [1]; 5 mpk i.v. two consecutive doses, then 150 mpk simvastatin and cholate diet, n=10): with one exception, all mice receiving anti-miR-33 oligonucleotides survived for at least a week
appearance of livers (miR-33 [1]; [6]): appeared normal
appearance of plasma (miR-33 [1]; [6]): appeared clear
hepatic free fatty acids, diglycerides, triglycerides and bile acids (miR-33 [1]; 150 mpk simvastatin and cholate diet, vs control animals): marked decrease
loss of body weight (miR-33 [1]; 150 mpk simvastatin and cholate diet, vs scrambled): minimal loss
hepatic expression of Atp8b1 (miR-33 [1]; [7]): increased expression
increased hepatic expression of Abcb11 or any other canalicular transporter (miR-33 [1]; [7]): not
liver/body mass ratio (miR-33 [1]; vs control mice that succumbed to the diet and statin treatment): significantly lower
amount of bile collected from the gallbladders (miR-33 [2]; fasted mice after a week, vs control mice): almost double
Abcb11 mRNA levels in liver (miR-33 [2]; vs scrambled): significantly increased
Atp8b1 mRNA levels in liver (miR-33 [2]; vs scrambled): significantly increased
concentration of phosphatidylcholine in bile (miR-33 [2]; vs scrambled): slightly elevated
mRNA levels of other canalicular transporters (Abcg5, Abcg8, Abcb4) in liver (miR-33 [2]; vs scrambled): remained unchanged
overall content of bile acids in pooled bile (miR-33 [2]; vs scrambled): did not change
overall content of cholesterol in pooled bile (miR-33 [2]; vs scrambled): did not change
bile secretion (bile recovered from the gallbladder) (miR-33 [3]): is increased
changes in body, liver or feces mass (miR-33 [3]): did not observe changes
amount of labeled cholesterol in circulation (miR-33 [3]; 6, 24, 48 h, vs control animals): increased
amount of labeled sterols found in the liver (miR-33 [3]; 48 h): did not statistically differ
contents of labeled biliary sterols (dpm/μL of bile), increase (miR-33 [3]; corrected for volume): 2 fold
recovery of labeled sterols in the feces, increase (miR-33 [3]; feces of last 48 h, vs control animals): ~2 fold

CCC(C)(C)C(=O)O[C@H]1C[C@@H](C)C=C2C=C[C@H](C)[C@H](CC[C@@H]3C[C@@H](O)CC(=O)O3)[C@H]21 [simvastatin]
reduction of hepatic Abcb11 levels [4]: ~40%

anti-miR-33 oligonucleotides: anti-miR-33 oligonucleotides injected in Example 4; sequence and chemistry not stated there (antisense TGCAACTACAATGCA; LNA-modified, pattern not given here; listed as Homo sapiens)
increase in HDL-cholesterol (miR-33 [5]; 12 days after infusion): 10-15%
increase in hepatic ABCA1 mRNA levels (miR-33 [5]; tail vein): 2 fold
increase in hepatic ABCA1 protein levels (miR-33 [5]; tail vein): 2 fold
